Test results: patent US20060069132A1, “Azolecarboxamide herbicides” (priority 2004, published 2006)

Experiments:
junglerice = assay: Test D flooded paddy test; type: in vivo, Echinochloa colona; details: 21 days, scale 0 to 100
Excerpt: (§1) Three plastic pots (ca. 16-cm diameter) per rate were partially filled with sterilized Tama silt loam soil comprising a 35:50:15 ratio of sand, silt and clay and 2.6% organic matter. Separate plantings for each of the three pots were as follows. Seeds from the U.S. of ducksalad (Heteranthera limosa (Sw.) Willd.), smallflower umbrella sedge (Cyperus difformis L.) and purple redstem (Ammannia coccinea Rottb.), were planted into one 16-cm pot for each rate. Seeds from the U.S. of rice flatsedge (Cyperus iria L.), bearded sprangletop (Leptochloa fascicularis (Lam.) Gray), one stand of 9 or 10 water seeded rice seedlings (Oryza sativa L. cv. ‘Japonica—M202’), and one stand of 6 transplanted rice seedlings (Oryza sativa L. cv. ‘Japonica—M202’) were planted into one 16-cm pot for each rate. Seeds from the U.S. of barnyardgrass (Echinochloa crus-galli (L.) Beauv.), late watergrass (Echinochloa oryzicola Vasinger), early watergrass (Echinochloa oryzoides (Ard.) Fritsch) and junglerice (Echinochloa colona (L.) Link) were planted into one 16-cm pot for each rate. Plantings were sequential so that crop and weed species were at the 2.0 to 2.5-leaf stage at time of treatment.
(§2) Potted plants were grown in a greenhouse with day/night temperature settings of 29.5/26.7° C., and supplemental balanced lighting was provided to maintain a 16-hour photoperiod. Test pots were maintained in the greenhouse until test completion.
(§3) At time of treatment, test pots were flooded to 3 cm above the soil surface, treated by application of test compounds directly to the paddy water, and then maintained at that water depth for the duration of the test. Effects of treatments on rice and weeds were visually evaluated by comparison to untreated controls after 21 days. Plant response ratings are reported on a 0 to 100 scale; where 0 is no effect and 100 is complete control. A dash (-) response means no test result.

early watergrass = assay: Test D flooded paddy test; type: in vivo, Echinochloa oryzoides; details: 21 days, scale 0 to 100
Excerpt: as §1, §2, §3

late watergrass = assay: Test D flooded paddy test; type: in vivo, Echinochloa oryzicola; details: 21 days, scale 0 to 100
Excerpt: as §1, §2, §3

bearded sprangletop = assay: Test D flooded paddy test; type: in vivo, Leptochloa fascicularis; details: 21 days, scale 0 to 100
Excerpt: as §1, §2, §3

kochia = assay: Test E pre-/postemergence herbicide test; type: in vivo, Kochia scoparia
Excerpt: (§4) Seeds of plant species selected from bipinnate beggarticks (Bidens bipinnata L.), hairy beggarticks (Bidens radiata Thuill.), bermudagrass (Cynodon dactylon (L.) Pers.), Surinam grass (Urochloa decumbens (Staph) R. D. Webster, previously named Brachiaria decumbens Stapf), large crabgrass (Digitaria sanguinalis (L.) Scop.), green foxtail (Setaria viridis (L.) P. Beauv.), goosegrass (Eleusine indica (L.) Gaertn.), johnsongrass (Sorghum halepense (L.) Pers.), kochia (Kochia scoparia (L.) Schrad.), pitted morningglory (Ipomoea lacunosa L.), purple nutsedge (Cyperus rotundus L.), common ragweed (Ambrosia elatior L.), mustard (Brassica nigra (L.) W. D. J. Koch), guineagrass (Panicum maximum Jacq.), dallisgrass (Paspalum dilatatum Poir.), barnyardgrass (Echinochloa crus-galli (L). P. Beauv.), southern sandbur (Cenchrus echinatus L.), common sowthistle (Sonchus oleraceous L.), prickly sida (Sida spinosa L.), Italian ryegrass (Lolium multiflorum Lam.), common purslane (Portulaca oleracea L.), broadleaf signalgrass (Brachiaria platyphylla (Griseb.) Nash), common groundsel (Senecio vulgaris L.), common chickweed (Stellaria media (L.) Vill/Cyr.), tropical spiderwort (Commelina benghalensis L.), annual bluegrass (Poa annua L.), downy bromegrass (Bromus tectorum L.), itchgrass (Rottboellia cochinchinensis (L.) L.f.), quackgrass (Elytrigia repens (L.) Nevski), Canada horseweed (Erigeron Canadensis L.), field bindweed (Convolvulus arvensis L.), spotted spurge (Euphorbia maculata L.), common mallow (Malva sylvestris (=s silvestris) L.), and Russian thistle (Salsola kali L. ssp. Ruthenica (Iljin) Soo) were planted and treated preemergence with test chemicals formulated in a non-phytotoxic solvent mixture which included a surfactant.
(§5) At the same time, plants selected from these weed species were treated with postemergence applications of some of the test chemicals formulated in the same manner. Plants ranged in height from 2 to 18 cm (1- to 4-leaf stage) for postemergence treatments. Treated plants and controls were maintained in a greenhouse for 12 to 14 days, after which time all species were compared to controls and visually evaluated. Plant response ratings, summarized in Table E, are based on a scale of 0 to 100 where 0 is no effect and 100 is complete control. A dash (-) response means no test result.

annual bluegrass = assay: Test E pre-/postemergence herbicide test; type: in vivo, Poa annua
Excerpt: as §4, §5

johnsongrass = assay: Test E pre-/postemergence herbicide test; type: in vivo, Sorghum halepense
Excerpt: as §4, §5

pitted morningglory = assay: Test E pre-/postemergence herbicide test; type: in vivo, Ipomoea lacunosa
Excerpt: as §4, §5

downy bromegrass = assay: Test E pre-/postemergence herbicide test; type: in vivo, Bromus tectorum
Excerpt: as §4, §5

tropical spiderwort = assay: Test E pre-/postemergence herbicide test; type: in vivo, Commelina benghalensis
Excerpt: as §4, §5

[1] = Postemergence, 500 g ai/ha, scale 0 to 100
[2] = Postemergence, 250 g ai/ha, scale 0 to 100
[3] = Preemergence, 62 g ai/ha, scale 0 to 100
[4] = Preemergence, 125 g ai/ha, scale 0 (no effect) to 100 (complete control)
[5] = Preemergence, 250 g ai/ha, scale 0 (no effect) to 100 (complete control)
[6] = Preemergence, 500 g ai/ha, scale 0 (no effect) to 100 (complete control)
[7] = postemergence, 125 g ai/ha, scale 0 to 100
[8] = postemergence, 62 g ai/ha, scale 0 to 100

CCc1nc(C(C)(C)C)sc1C(=O)Nc1cccc(C(=O)NCC2CC2)n1 [Compound 215]
Plant response rating, Junglerice (junglerice; 125 g ai/ha): 0 | Plant response rating, Junglerice (junglerice; 250 g ai/ha): 0 | Plant response rating, Junglerice (junglerice; 500 g ai/ha): 20 | Plant response rating, Junglerice (junglerice; 750 g ai/ha): 25 | Plant response rating, Junglerice (junglerice; 1000 g ai/ha): 25 | Plant response rating, Watergrass, Early (early watergrass; 125 g ai/ha): 0 | Plant response rating, Watergrass, Early (early watergrass; 250 g ai/ha): 0 | Plant response rating, Watergrass, Early (early watergrass; 500 g ai/ha): 20 | Plant response rating, Watergrass, Early (early watergrass; 750 g ai/ha): 25 | Plant response rating, Watergrass, Early (early watergrass; 1000 g ai/ha): 40 | Plant response rating, Watergrass, Late (late watergrass; 125 g ai/ha): 0 | Plant response rating, Watergrass, Late (late watergrass; 250 g ai/ha): 0 | Plant response rating, Watergrass, Late (late watergrass; 500 g ai/ha): 20 | Plant response rating, Watergrass, Late (late watergrass; 750 g ai/ha): 20 | Plant response rating, Watergrass, Late (late watergrass; 1000 g ai/ha): 20 | Plant response rating, Sprangletop, Bearded (bearded sprangletop; 125 g ai/ha): 20 | Plant response rating, Sprangletop, Bearded (bearded sprangletop; 250 g ai/ha): 20 | Plant response rating, Sprangletop, Bearded (bearded sprangletop; 500 g ai/ha): 20 | Plant response rating, Sprangletop, Bearded (bearded sprangletop; 750 g ai/ha): 20 | Plant response rating, Sprangletop, Bearded (bearded sprangletop; 1000 g ai/ha): 20

CCn1nc(C(C)(C)C)cc1C(=O)Nc1cc(C(=O)N(C)C)ccc1F [Compound 6, N-[5-[(dimethylamino)carbonyl]-2-fluorophenyl]-3-(1,1-dimethylethyl)-1-ethyl-1H-pyrazole-5-carboxamide]
Plant response rating, Kochia (kochia; [1]): 100 | Plant response rating, Kochia (kochia; [2]): 100 | Plant response rating, Kochia (kochia; [3]): 100 | Plant response rating, Kochia (kochia; [4]): 100 | Plant response rating, Kochia (kochia; [5]): 100 | Plant response rating, Kochia (kochia; [6]): 100 | Plant response rating, Kochia (kochia; [7]): 100 | Plant response rating, Kochia (kochia; [8]): 100 | Plant response rating, Bluegrass (annual bluegrass; [1]): 98 | Plant response rating, Bluegrass (annual bluegrass; [2]): 98 | Plant response rating, Bluegrass (annual bluegrass; [3]): 100 | Plant response rating, Bluegrass (annual bluegrass; [4]): 100 | Plant response rating, Bluegrass (annual bluegrass; [6]): 100 | Plant response rating, Bluegrass (annual bluegrass; [7]): 98 | Plant response rating, Bluegrass (annual bluegrass; [8]): 98 | Plant response rating, Johnsongrass (johnsongrass; [1]): 98 | Plant response rating, Johnsongrass (johnsongrass; [2]): 98 | Plant response rating, Johnsongrass (johnsongrass; [3]): 90 | Plant response rating, Johnsongrass (johnsongrass; [4]): 90 | Plant response rating, Johnsongrass (johnsongrass; [5]): 90 | Plant response rating, Johnsongrass (johnsongrass; [6]): 100 | Plant response rating, Johnsongrass (johnsongrass; [7]): 95 | Plant response rating, Johnsongrass (johnsongrass; [8]): 90 | Plant response rating, Morningglory (pitted morningglory; [1]): 80 | Plant response rating, Morningglory (pitted morningglory; [2]): 60 | Plant response rating, Morningglory (pitted morningglory; [3]): 20 | Plant response rating, Morningglory (pitted morningglory; [4]): 70 | Plant response rating, Morningglory (pitted morningglory; [6]): 100 | Plant response rating, Morningglory (pitted morningglory; [7]): 10 | Plant response rating, Morningglory (pitted morningglory; [8]): 0 | Plant response rating, Bromegrass, Downy (downy bromegrass; [1]): 100 | Plant response rating, Bromegrass, Downy (downy bromegrass; [2]): 100 | Plant response rating, Bromegrass, Downy (downy bromegrass; [3]): 90 | Plant response rating, Bromegrass, Downy (downy bromegrass; [4]): 95 | Plant response rating, Bromegrass, Downy (downy bromegrass; [5]): 95 | Plant response rating, Bromegrass, Downy (downy bromegrass; [6]): 100 | Plant response rating, Bromegrass, Downy (downy bromegrass; [7]): 98 | Plant response rating, Bromegrass, Downy (downy bromegrass; [8]): 95 | Plant response rating, Spiderwort (tropical spiderwort; [1]): 95 | Plant response rating, Spiderwort (tropical spiderwort; [2]): 90 | Plant response rating, Spiderwort (tropical spiderwort; [3]): 70 | Plant response rating, Spiderwort (tropical spiderwort; [4]): 75 | Plant response rating, Spiderwort (tropical spiderwort; [5]): 80 | Plant response rating, Spiderwort (tropical spiderwort; [6]): 95 | Plant response rating, Spiderwort (tropical spiderwort; [7]): 75 | Plant response rating, Spiderwort (tropical spiderwort; [8]): 60
